# Data as given in US20220185811A1, “FGFR4 KINASE INHIBITOR AND PREPARATION METHOD THEREFOR AND USE THEREOF” (SHOUYAO HOLDINGS (BEIJING) CO., LTD., priority 2019, published 2022).
# Where two headings read alike, the source gives them in different places.
# Experiments:
# FGFR-4 kinase = FGFR-4 kinase (Homo sapiens, UniProt P22455); experiment: FGFR-4 kinase activity, homogeneous time-resolved fluorescence (HTRF) method; format: biochemical; settings: ATP 25 μM, FGFR-4 kinase 1 nM, read-out: FGFR4 IC50
# Procedure: 1. In vitro determination of the protein activity of compounds: The FGFR-4 kinase activity detection platform was established by the homogeneous time-resolved fluorescence (HTRF) method, and the activity of the compound was determined. 1000 μM compounds were subjected to 3-fold gradient dilution in 100% DMSO 11 times (12 concentrations in total), 4 μL diluent from each concentration was added to 96 μL of reaction buffer (50 mM HEPES, pH 7.4, 5 mM MnCl2, 0.1 mM NaVO3, 0.001% Tween-20, 0.01% BAS, 1 mM DTT) and mixed well, as a 4* compound (final concentration of 0.017 nM-1000 nM) for later use. 2 * FGFR-4 kinase (final concentration of 1 nM) was formulated using reaction buffer and 4*substrate (ATP+TK peptide) (TK peptide, HTRF® KinEASETM-TK, purchased from Cisbio, TK peptide, final concentration of 1 μM, ATP final concentration of 25 μ M) was formulated using reaction buffer. 2.5 μL of 4*compound and then 5 μL of 2 * FGFR-4 kinase were added to a 384-well plate (OptiPlate-384, purchased from PerkinElmer), the mixture was mixed by centrifugation, and 2.5 μL of 4 * substrate mixture was added to start the reaction (total reaction volume of 10 µL). The 384-well plate was placed in an incubator 23° C. and stirred for 60 min before the reaction was stopped by the addition of 5 μL of Eu^3+cryptate-labeled anti-phosphotyrosine antibody (TRF® KinEASE™-TK, purchased from Cisbio) and 5 μL of Streptavidin-XL-665 (HTRF® KinEASE™-TK, purchased from Cisbio). After incubation in the incubator for 1 h, fluorescence values (excitation at 320 nm, detecting emitted light at 665 nm and 620 nm, and a ratio of the two as enzyme activity) were read on Envision (purchased from PerkinElmer). The enzyme activity of each compound was measured at 12 concentrations, and the ICso value of the compound was calculated using GraphPad Prism 5.0 software.
# The FGFR-4 kinase activity detection platform was established by homogeneous time-resolved fluorescence (HTRF) method, and the activity of compound was determined. 1000 μM compounds were subjected to 3-fold gradient dilution in 100% DMSO 11 times (12 concentrations in total), 4 μL of diluent from each concentration was added to 96 μL of reaction buffer (50 mM HEPES, pH 7.4, 5 mM MnCl2, 0.1 mM NaVO3, 0.001% Tween-20, 0.01% BAS, 1 mM DTT) and mixed well, as a 4* compound (final concentration of 0.017 nM-1000 nM) for later use. 2 * FGFR-4 kinase (final concentration of 1 nM) was formulated using reaction buffer and 4*substrate (ATP+TK peptide)(TK peptide, HTRF® KinEASE™-TK, purchased from Cisbio, TK peptide, final concentration of 1 μM, ATP final concentration of 25 μM) was formulated using reaction buffer. 2.5 μL of 4 * compound and then 5 μL of 2 * FGFR-4 kinase were added to a 384-well plate (OptiPlate-384, purchased from PerkinElmer), the mixture was mixed by centrifugation, and 2.5 μL of 4 * substrate mixture was added to start the reaction (total reaction volume of 10 μL). The 384-well plate was placed in an incubator 23° C. and stirred for 60 min before the reaction was stopped by the addition of 5 μL of Eu^3+cryptate-labled anti-phosphotyrosine antibody (TRF® KinEASE™-TK, purchased from Cisbio) and 5 μL of Streptavidin-XL-665 (HTRF® KinEASE™-TK, purchased from Cisbio). After incubation in the incubator for 1 h, fluorescence values (excitation at 320 nm, detecting emitted light at 665 nm and 620 nm, and a ratio of the two as enzyme activity) were read on Envision (purchased from PerkinElmer). The enzyme activity of each compopund was measured at 12 concentrations, and the ICso value of the compound was calculated using GraphPad prism 5.0 software.
# [1] = test system: Human hepatoma cells Hep3b; experiment: Cell proliferation inhibition, Cell Titer-Glo; format: cell-based; settings: Hep3B, 72 h
# Procedure: 2. Determination of cell proliferation activity of compounds:
# Cell Titer-Glo ® detection reagent from Promega was used to establish the suspension cell proliferation inhibition screening method. Human hepatoma cells Hep3b (Xiehe Cell Research Center) were cultured in 25 cm^2 or 75 cm^2 plastic tissue culture flasks (Corning®) filled with MEM (Gibco®) medium supplemented with 10% fetal bovine serum (Hyclone®) under 37° C., 95% air and 5% CO2, and subcultured 2-3 times a week.
# (§1) Hep3b cells were seeded in a 96-well cell culture plate (Corning®) at a density of 3×10^3 cells/well, […], and cultured under 37° C., 95% air, and 5% CO2. After 24 h the test compound was added: 10 mM compounds (dissolved in DMSO) were subjected to 3-fold gradient dilution in DMSO , […] of diluent from each concentration was added to […] of serum-free medium, and finally […] of compound diluted in the medium was added to the plate seeded with cells. The final concentration of DMSO in the cell culture medium was 0.1% and the final concentration of the test compound was 0.3 nM-[…]. The above cells were incubated for 3 days under 37° C.
# After 3 days, the cell viability assay was performed by the Cell Titer-Glo (Promega) kit, and finally, the inhibitory concentration 50% of the compound on cell proliferation, i.e. the IC 50 value, was calculated by the GraphPad Prism 5.0 program.
# as §1, with “DMSO,” for “DMSO ,”, “finally,” for “finally”, “of” for “of the”
# After 3 days, the cell viability assay was performed by the Cell Titer-Glo (Promega) kit, and finally the inhibitory concentration 50% of the compound on cell proliferation, i.e. the IC 50 value, was calculated by the GraphPad Prism 5.0 program.
# [2] = Pharmacokinetics in male SD rats, single intragastric administration; format: in vivo; settings: 5 mg/kg suspension, plasma; for AUC(0-inf) / Cmax / Tmax / half-life: rat, po
# Procedure: (§2) Male SD rats (Beijing Vital River Laboratory Animal Technology Co., Ltd.) were divided into groups of 3 rats each. The rats were subjected to 5 mg/kg suspension of the test sample by single intragastric administration, respectively. Animals were fasted overnight prior to the experiment from 10 h before dosing to 4 h after dosing. Blood was collected 0.25, 0.5, 1, 2, 4, 6, 8, and 24 h after administration. After isoflurane anesthesia using a small animal anesthesia machine, 0.3 mL of whole blood samples was collected from the fundus venous plexus, placed in a heparin anticoagulant tube, and were centrifuged at 4° C., 4000 rpm for 5 min, plasma was transferred to the centrifuge tube, and stored at −80° C. until analysis. Samples in the plasma were extracted using protein precipitation and the extracts were analyzed by LC/MS/MS.
# as §2, with “taken through” for “collected from”, “-80°” for “−80°”
# FGFR1-4 = settings: background art; equally high-efficiency inhibition of FGFR1-4; cited from earlier work
# [3] = first PK table, read-out: T1/2 (converted)
# [4] = second PK table, read-out: T½ (converted)
# Sequence of FGFR-4 kinase (P22455 22-802): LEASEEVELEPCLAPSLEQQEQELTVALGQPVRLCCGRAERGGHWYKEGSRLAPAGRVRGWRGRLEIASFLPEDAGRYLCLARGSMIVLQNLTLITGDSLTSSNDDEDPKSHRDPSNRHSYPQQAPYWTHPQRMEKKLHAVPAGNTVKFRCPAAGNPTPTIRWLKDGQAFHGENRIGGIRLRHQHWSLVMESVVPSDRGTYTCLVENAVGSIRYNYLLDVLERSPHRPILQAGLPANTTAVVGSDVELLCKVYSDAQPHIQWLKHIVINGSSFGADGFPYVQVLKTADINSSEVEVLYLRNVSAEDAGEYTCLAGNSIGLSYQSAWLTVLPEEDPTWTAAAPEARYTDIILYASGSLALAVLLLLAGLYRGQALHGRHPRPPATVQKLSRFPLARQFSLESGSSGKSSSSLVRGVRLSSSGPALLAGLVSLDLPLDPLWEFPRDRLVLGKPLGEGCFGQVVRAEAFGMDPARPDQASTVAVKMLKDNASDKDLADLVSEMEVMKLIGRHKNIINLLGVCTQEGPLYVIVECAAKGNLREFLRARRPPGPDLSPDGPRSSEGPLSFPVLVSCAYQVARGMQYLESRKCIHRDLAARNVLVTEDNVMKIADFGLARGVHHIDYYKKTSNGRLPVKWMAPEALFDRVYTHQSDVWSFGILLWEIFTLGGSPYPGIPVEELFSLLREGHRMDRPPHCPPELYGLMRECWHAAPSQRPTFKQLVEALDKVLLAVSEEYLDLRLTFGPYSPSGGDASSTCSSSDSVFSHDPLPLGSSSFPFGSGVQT
smiles,measurement,setting,value
"C=CC(=O)N[C@H]1CCOC[C@H]1Nc1ncc2cc(-c3c(Cl)c(OC)cc(OC)c3Cl)ccc2n1 [Blu-554, reference compound]",IC50,FGFR-4 kinase; Table 1,7.49 nM
same,IC50,FGFR-4 kinase; Table 2,2.21 nM
same,IC50,"[1]; Table 1, 3 days incubation",162 nM
same,IC50,"[1]; Table 2, 3 days incubation",66.1 nM
same,T½,[2]; second PK table,1.64 h
same,AUC(0-inf),[2]; first PK table,1680 ng·h/mL
same,Cmax,[2]; first PK table,362 ng/mL
same,Tmax,[2]; first PK table,2.67 h
same,half-life,[2]; [3],98.4 min
"C=CC(=O)Nc1cc(-c2cc3c(cn2)cc(-c2c(Cl)c(OC)cc(OC)c2Cl)c2nccn23)c(OC)cc1N1C2CCC1COC2 [Example 6, N-(2-(3-oxa-8-azabicyclo[3 .2.1]octan-8-yl)-5-(4-(2,6-dichloro-3,5-dimethoxyphenyl)imidazo[1,2-a][1,6]naphthyridin-8-yl)-4-methoxyphenyl)acrylamide]",IC50,"[1]; Table 1, 3 days incubation",58.3 nM
same,AUC(0-inf),[2]; first PK table,2560 ng·h/mL
same,Cmax,[2]; first PK table,236 ng/mL
same,Tmax,[2]; first PK table,6 h
same,half-life,[2]; [3],690 min
C=CC(=O)Nc1cc(-c2cc3c(cn2)cc(-c2c(Cl)c(OC)cc(OC)c2Cl)c2nccn23)c(OC)cc1N1CCN(C2CC2)CC1 [Example 59],IC50,FGFR-4 kinase; Table 2,1.1 nM
same,IC50,"[1]; Table 2, 3 days incubation",63.2 nM
same,AUC(0-inf),[2]; second PK table,3940 ng·h/mL
same,Cmax,[2]; second PK table,505 ng/mL
same,Tmax,[2]; second PK table,2.67 h
same,half-life,[2]; [4],238 min
"C=CC(=O)Nc1cc(-c2cc3c(cn2)cc(-c2c(Cl)c(OC)cc(OC)c2Cl)c2nccn23)c(OC)cc1N1C[C@@H]2C[C@H]1CO2 [Example 61, N-(2-((1S,4S)-2-oxa-5-azabicyclo[2.2.1]heptan-5-yl)-5-(4-(2,6-dichloro-3,5-dimethoxyphenyl)imidazo[1,2-a][1,6]naphthyridin-8-yl)-4-methoxyphenyl)acrylamide]",IC50,FGFR-4 kinase; Table 2,1.7 nM
same,IC50,"[1]; Table 2, 3 days incubation",121 nM
same,AUC(0-inf),[2]; second PK table,3050 ng·h/mL
same,Cmax,[2]; second PK table,561 ng/mL
same,Tmax,[2]; second PK table,1.17 h
same,half-life,[2]; [4],156 min
"C=CC(=O)Nc1cc(-c2cc3c(cn2)cc(-c2c(Cl)c(OC)cc(OC)c2Cl)c2nccn23)c(OC)cc1N1CCC2(CCOC2)C1 (stereo not shown) [Example 62, N-(5-(4-(2,6-dichloro-3,5-dimethoxyphenyl)imidazo[1,2-a][1,6]naphthyridin-8-yl)-4-methoxy-2-(2-oxa-7-azaspiro[4, 4]nonan-7-yl)phenyl)acrylamide]",IC50,FGFR-4 kinase; Table 2,2.4 nM
same,IC50,"[1]; Table 2, 3 days incubation",43.8 nM
same,AUC(0-inf),[2]; second PK table,1120 ng·h/mL
same,Cmax,[2]; second PK table,175 ng/mL
same,Tmax,[2]; second PK table,5.33 h
same,half-life,[2]; [4],296 min
COc1cc(OC)cc(N(CCNC(C)C)c2ccc3ncc(-c4cnn(C)c4)nc3c2)c1 [JNJ-42756493],IC50 on FGFR1-4,FGFR1-4,single-digit nanomolar level
C[C@@H](Oc1ccc2[nH]nc(/C=C/c3cnn(CCO)c3)c2c1)c1c(Cl)cncc1Cl [LY2874455],IC50 on FGFR1-4,FGFR1-4,single-digit nanomolar level
